Data: PMC5596814 (The Journal of Pharmacology and Experimental Therapeutics, 2017)

What was measured:
[1] = design: method as in Narasimhan et al., 2013; details: ref Narasimhan et al., 2013, cited from earlier work
[2] = WT mice treated with TCDD versus vehicle
[3] = in vivo; details: male, mouse, plasma, po, 40 mg/kg, ponatinib 40 mg/kg oral gavage; for Cmax: WT mice
[4] = concurrent therapy with ketoconazole (a CYP3A4 inhibitor), ref Narasimhan et al., 2013; cited from earlier work
[5] = in vivo; details: for Cmax / half-life: male, hCYP1A1/1A2 humanized, mouse, in vivo, po, 40 mg/kg, ponatinib 40 mg/kg oral gavage; for Cmax: hCYP1A1/1A2 mice; for half-life: t1/2, hCYP1A1/1A2 mice
Procedure: All animal work was carried out on 8- to 12-week-old male mice. 3-Methylcholanthrene (3-MC) was suspended in corn oil at 4 mg/ml for administration by intraperitoneal injection at 40 mg/kg (10 μl/g body weight) daily for 3 days for hCYP1A1/2 mice. TCDD was suspended in corn oil at 1 µg/ml for administration by intraperitoneal injection at 10 µg/kg (10 μl/g body weight) daily for 3 days for wild-type (WT) mice. […] For blood sample collection, 10 μl of whole blood was withdrawn from the tail vein at the indicated time points. Samples were immediately added to a tube containing heparin solution (10 μl, 15 IU/ml), put into liquid nitrogen, and then stored at −80°C until processing. On the day of analysis, acetonitrile (80 µl containing 200 ng/ml triazolam) was added to thawed samples, which were shaken for 15 minutes, centrifuged for 10 minutes at 16,000g, and analyzed. […] An aliquot of 0.25 g was extracted with 1 ml of 80% methanol for 30 minutes on a vortex evaporator (Labconco, Kansas City, MO). After centrifugation (30 minutes at 4000g), the solvent of a 800 μl aliquot of the supernatant was removed by speed vacuum, followed by reconstitution in 500 μl methanol and water (50/50, v/v), and analyzed by LC-MRM.
Analysis of in vitro incubation and in vivo blood PK samples was carried out by ultra-performance LC-MS/MS using the Waters Acquity UPLC (Micromass, Manchester, United Kingdom) and Micromass Quattro Premier Mass Spectrometer with electrospray ionization. The chromatography was performed using a C18 column (Kinetex 1.7 µ 100 A; 50 × 2.1 mm; Phenomenex, Macclesfield, United Kingdom) at a temperature of 45°C with mobile phases of 0.1% formic acid (A) and acetonitrile and 0.1% formic acid (B). A gradient at a flow rate of 0.5 ml/min was run over 3 minutes as follows: 0–0.5 minutes, 95% A; 0.5–0.75 minutes, 95%–67.5% A; 0.75–1.50 minutes, 67.5% A, 1.50–2.00 minutes, 67.5%–50% A; 2.00–2.50 minutes, 50%–5% A; and then returning to the initial conditions for a final 0.5 minutes. The cone voltage and collision energy were optimized for each substrate and MRM data were acquired (Supplemental Table 1).
In the present study, the absolute concentrations of the metabolites in the incubation mixture could not be determined because of the lack of authentic standards. Therefore, the relative activity of the P450s was presented by comparing the concentration of the metabolite in a sample with the concentration of the same metabolite in the sample that had the highest response under the same experimental condition ([Yu et al., 2010]). The relative activity of the P450s toward metabolite formation could be calculated according to the ratio of the metabolite concentration to that in the sample with highest mass response. The PK parameters of in vivo data were calculated with a simple noncompartmental model using the WinNonLin software, version 4.1 (Pharsight (Certara, Cambridge, UK)) and are shown with the S.D. values. The P values were calculated using an unpaired t test; *P < 0.05, **P < 0.01, ***P < 0.001.

[6] = human; cited from earlier work
[7] = biological target: T1, mGstp1 (Mus musculus, UniProt P19157); assay: Protein adducts of ponatinib with mGstp1 in the presence of human recombinant CYP1A1 (LC-MS/MS of tryptic digests); assay type: in vitro ADME; details: ponatinib 50 µM, CYP1A1, 10 µg/ml mGstp1, 80 minutes
T1 construct: made in house
Procedure: The incubation was started by the addition of a NADPH-regenerating system (final concentration: 1.3 mM NADPH, 4 mM glucose-6-phosophate, 2 U/ml glucose-6-phosphate dehydrogenase, and 3.3 mM […]) and allowed to proceed at 37°C for 80 minutes. The reaction was terminated by cooling on ice, and the E. coli membrane containing human recombinant CYP1A1 was removed by ultracentrifugation at 41,000g at 4°C for 80 minutes. […] The solvent was exchanged to 50 mM ammonium bicarbonate and further concentrated to 100 µl.
Aliquots of the solution (10 µl) were mixed with 10 μl of 4× NuPAGE lithium dodecyl sulfate loading buffer (Invitrogen, Carsbad, CA) by incubation at 95°C for 5 minutes and then subjected to SDS-PAGE on a NuPAGE Novex 10% Bis-Tris mini gel (Invitrogen NP0341BOX). After electrophoresis at a constant 180 V for 30 minutes, gels were stained with Coomassie Blue. Bands (20–25 kDa) containing mGstp1 were cut from the gel, and after removing the Coomassie Blue from the gel by adding 100 mM ammonium bicarbonate/acetonitrile (1:1, v/v) and subsequently dehydrating with 100% acetonitrile, the solvent was removed from the gel pieces under vacuum. The residue was resuspended in 0.01 μg/μl MS grade trypsin (Promega, Madison, WI) in 25 mM ammonium bicarbonate and incubated at 37°C overnight. […]

[8] = cited from earlier work
[9] = tested on: human recombinant P450 enzymes; assay: Ponatinib biotransformation by panel of 11 human recombinant P450 enzymes; assay type: in vitro ADME; details: ponatinib 50 µM, P450 100 nM, panel of 11 enzymes
Procedure: All incubations were performed at 37°C and 300 rpm in a thermomixer. Human cDNA-expressed P450 isoenzymes coexpressed with human NADPH P450 oxidoreductase (see Supplemental Fig. 1 for CYP:oxidoreductase ratio data) were carefully thawed on ice prior to the experiment. […] After 5-minute preincubation at 37°C, the incubation reactions were initiated by addition of a NADPH regenerating system (final concentration: 1.3 mM NADPH, 4 mM glucose-6-phosphate, and 2 unit/ml glucose-6-phosphate dehydrogenase). After 5–120 minutes, an aliquot of 100 µl of reaction mixture was quenched with same volume of cold acetonitrile containing 400 ng/ml of triazolam as the internal standard. […] An aliquot of the supernatant fraction was analyzed by liquid chromatography (LC)–tandem mass spectrometry (MS), i.e., LC-MS/MS. […]
In the present study, the absolute concentrations of the metabolites in the incubation mixture could not be determined because of the lack of authentic standards. […] The relative activity of the P450s toward metabolite formation could be calculated according to the ratio of the metabolite concentration to that in the sample with highest mass response. The PK parameters of in vivo data were calculated with a simple noncompartmental model using the WinNonLin software, version 4.1 (Pharsight (Certara, Cambridge, UK)) and are shown with the S.D. values. […]

[10] = hCYP1A1/1A2 mice treated with 3-MC versus vehicle
[11] = 3-MC pretreatment (40 mg/kg i.p. daily for 3 days)
[12] = ponatinib treatment, ref Cortes et al., 2012

T1 sequence (P19157 2-210 limits assumed): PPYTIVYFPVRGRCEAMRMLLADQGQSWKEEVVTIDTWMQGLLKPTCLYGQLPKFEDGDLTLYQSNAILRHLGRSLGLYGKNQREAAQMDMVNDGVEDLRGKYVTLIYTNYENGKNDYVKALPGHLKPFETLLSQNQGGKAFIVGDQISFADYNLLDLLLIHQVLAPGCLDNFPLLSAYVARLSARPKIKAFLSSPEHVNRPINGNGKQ

Cc1ccc(C(=O)O)cc1C#Cc1cnc2cccnn12 [AP24600]
activity of metabolite ([1]; esterase/amidase product): inactive

Cc1ccc(C(=O)Nc2ccc(CN3CCNCC3)c(C(F)(F)F)c2)cc1C#Cc1cnc2cccnn12 [N-desmethyl]
potency relative to ponatinib (fold less potent) [1]: 4 fold

Cc1ccc(C(=O)Nc2ccc(CN3CCN(C)CC3)c(C(F)(F)F)c2)cc1C#Cc1cnc2cccnn12 [ponatinib, 3-[2-(imidazo[1,2-b]pyridazin-3-yl)ethynyl]-4-methyl-N-4-[(4-methylpiperazin-1-yl)methyl]-3-(trifluoromethyl)phenylbenzamide]
decrease in the ponatinib half-life [2]: 62% | reduction in the AUC0–8 hours value [2]: 87% | Cmax ([3]; TCDD pretreatment (10 µg/kg i.p. daily for 3 days)): 253 ± 42 ng/mL | Cmax ([3]; vehicle pretreatment): 1210 ng/mL | half-life ([3]; t1/2, WT mice, vehicle pretreatment): 6.2 ± 0.2 h | change of ponatinib AUC0–∞, AUC0–t and Cmax values [4]: significantly increased | reduction in AUC0–8 hours [5, 10]: 54% | reduction in half-life [5, 10]: 67% | Cmax [5, 11]: 620 ± 245 ng/mL | Cmax ([5]; vehicle pretreatment): 705 ± 96 ng/mL | half-life [5, 11]: 4.6 ± 0.8 h | half-life ([5]; vehicle pretreatment): 13.9 ± 1.7 h | plasma half-life (t1/2) [6]: ~24 h | covalent ponatinib adducts on mGstp1 cysteine residues [7]: ponatinib-Gstp adducts had been formed on Cys-14 and Cys-47 | alanine aminotransferase elevation, patients in clinical trials ([8]; clinical trials): 10.5% | aspartate aminotransferase elevation, patients in clinical trials ([8]; clinical trials): 8.2% | neutropenia, patients [8, 12]: 19% | thrombocytopenia, patients [8, 12]: 37% | P450 enzymes metabolizing ponatinib, disappearance of the parent drug [9]: principally metabolized via CYP3A4 and CYP1A1
